These are literature values, as cited in US10722516B2, “Use of landiolol hydrochloride in the long-term treatment of tachyarrhythmias” (AOP Orphan Pharmaceuticals AG, priority 2013, dated 2020).

Counter-ions that a name gives are not always drawn. Where only a bound is given, the exact number is not on record here.

Data set [1] deals with adrenergic β1 adrenoreceptor (Homo sapiens, UniProt P08588). The settings on record: bolus followed by a continuous infusion; cited from earlier work.
The conditions of data set [2]: after discontinuing the drug; cited from earlier work.

Sequence of adrenergic β1 adrenoreceptor (P08588 whole entry, the tested form may be a part): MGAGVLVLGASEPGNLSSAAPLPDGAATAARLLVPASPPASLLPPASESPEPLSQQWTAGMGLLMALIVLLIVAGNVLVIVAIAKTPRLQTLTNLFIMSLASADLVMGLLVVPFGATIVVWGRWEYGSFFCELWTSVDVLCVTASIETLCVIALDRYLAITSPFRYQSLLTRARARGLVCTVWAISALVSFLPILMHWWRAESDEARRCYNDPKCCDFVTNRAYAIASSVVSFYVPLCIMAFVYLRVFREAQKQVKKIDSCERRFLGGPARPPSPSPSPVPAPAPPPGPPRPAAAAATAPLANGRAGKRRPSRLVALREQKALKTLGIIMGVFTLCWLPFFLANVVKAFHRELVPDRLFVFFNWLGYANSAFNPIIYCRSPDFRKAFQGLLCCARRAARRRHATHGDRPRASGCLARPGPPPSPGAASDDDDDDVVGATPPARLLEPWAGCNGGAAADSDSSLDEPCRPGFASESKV

Turning to `COC(=O)CCc1ccc(OCC(O)CNC(C)C)cc1` (stereo not drawn) [Esmolol, Esmolol hydrochloride], in data set [1], the onset of activity is at most 2 min and the “time to 90% of steady-state beta-blockade” value is at most 5 min. The “time to resolution of hypotension symptoms” value in data set [2] is at most 30 min.
